Experimental data as given in patent US8173635B2, “Kinase inhibitors” (Vertex Pharmaceuticals Incorporated, priority 2007, dated 2012).

Tests used:
Format in all cases: biochemical
PKC delta kinase = PKC delta kinase (Homo sapiens, UniProt Q05655); assay: PKC delta kinase inhibition, coupled-enzyme NADH absorbance assay (Ki); conditions: 150 μM ATP, 46 nM PKC delta, 30° C.; read-out: Ki PKC delta
Protocol: (§1) An assay buffer solution was prepared which consisted of 100 mM HEPES (pH 7.5), 10 mM MgCl2, 25 mM NaCl, 0.1 mM EDTA and 0.01% Brij. […] To 16 μL of this enzyme buffer, in a 384 well plate, was added 1 μL of VRT stock solution in DMSO. The mixture was allowed to equilibrate for 10 mins at 30° C. […] Ki values were calculated from initial rate data by non-linear regression using the Prism software package (Prism 4.0a, Graphpad Software, San Diego, Calif.).

PKC alpha kinase = PKC alpha kinase (Homo sapiens, UniProt P17252); assay: PKC alpha kinase inhibition, coupled-enzyme NADH absorbance assay (Ki); conditions: 130 μM ATP, 4.5 nM PKC alpha, 30° C.; read-out: Ki PKC alpha
Protocol: as §1, with “EDTA, 100 μM CaCl2” for “EDTA”, “C. The enzyme reaction was initiated by the addition of 16 μL stock ATP solution prepared in assay buffer to a final assay concentration of 130 μM. Initial rate data was determined from the rate of change of absorbance at 340 nm (corresponding to stoichiometric consumption of NADH) using a Molecular Devices Spectramax plate reader (Sunnyvale, Calif.) over 15 mins at 30° C.” for “C.”

PKC theta kinase = PKC theta kinase (Homo sapiens, UniProt Q04759); assay: PKC theta kinase inhibition, coupled-enzyme NADH absorbance assay (Ki); conditions: 240 μM ATP, 18 nM PKC theta, 30° C.; read-out: Ki PKC theta
Protocol: as §1, with “To 60” for “To 16”, “added 2” for “added 1”

PKC delta kinase, sequence (Q05655 whole entry): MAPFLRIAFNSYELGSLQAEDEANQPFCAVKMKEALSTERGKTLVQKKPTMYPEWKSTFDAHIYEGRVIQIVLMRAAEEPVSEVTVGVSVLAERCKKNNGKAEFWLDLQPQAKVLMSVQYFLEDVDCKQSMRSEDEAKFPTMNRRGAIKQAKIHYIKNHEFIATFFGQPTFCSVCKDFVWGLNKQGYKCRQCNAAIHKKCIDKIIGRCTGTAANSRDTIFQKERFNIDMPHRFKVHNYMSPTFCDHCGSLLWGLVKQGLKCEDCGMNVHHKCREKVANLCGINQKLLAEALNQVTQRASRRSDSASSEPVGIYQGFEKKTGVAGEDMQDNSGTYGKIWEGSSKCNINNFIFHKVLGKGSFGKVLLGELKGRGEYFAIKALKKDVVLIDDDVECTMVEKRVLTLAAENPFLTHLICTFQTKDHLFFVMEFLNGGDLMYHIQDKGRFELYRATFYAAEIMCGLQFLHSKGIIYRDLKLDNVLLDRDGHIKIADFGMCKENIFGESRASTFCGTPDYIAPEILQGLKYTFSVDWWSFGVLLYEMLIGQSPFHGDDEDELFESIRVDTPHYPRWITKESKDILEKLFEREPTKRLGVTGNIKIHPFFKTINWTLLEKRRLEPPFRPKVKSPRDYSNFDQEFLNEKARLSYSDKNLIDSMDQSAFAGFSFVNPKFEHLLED
PKC theta kinase, sequence (Q04759 whole entry): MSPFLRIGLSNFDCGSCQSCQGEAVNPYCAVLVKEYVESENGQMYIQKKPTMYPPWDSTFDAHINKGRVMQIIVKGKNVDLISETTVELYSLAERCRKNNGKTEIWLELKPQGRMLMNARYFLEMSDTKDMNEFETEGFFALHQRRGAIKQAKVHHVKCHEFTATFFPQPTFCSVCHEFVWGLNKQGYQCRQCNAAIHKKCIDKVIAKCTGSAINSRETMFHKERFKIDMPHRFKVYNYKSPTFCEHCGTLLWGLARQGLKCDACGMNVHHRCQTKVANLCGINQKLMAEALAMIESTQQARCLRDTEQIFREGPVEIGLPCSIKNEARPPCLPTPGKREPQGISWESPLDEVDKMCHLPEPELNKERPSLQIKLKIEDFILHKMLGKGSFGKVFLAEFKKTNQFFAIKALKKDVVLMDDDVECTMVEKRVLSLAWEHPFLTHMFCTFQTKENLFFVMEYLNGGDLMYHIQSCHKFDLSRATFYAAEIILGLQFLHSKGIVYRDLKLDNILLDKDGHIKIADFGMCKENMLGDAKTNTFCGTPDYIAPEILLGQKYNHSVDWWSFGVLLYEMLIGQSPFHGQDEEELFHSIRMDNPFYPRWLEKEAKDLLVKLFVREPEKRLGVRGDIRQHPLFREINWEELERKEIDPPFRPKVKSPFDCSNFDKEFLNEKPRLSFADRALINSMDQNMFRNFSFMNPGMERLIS

| Ki (PKC delta kinase) | Ki (PKC alpha kinase) | Ki (PKC theta kinase) | SMILES |
| --- | --- | --- | --- |
| < 0.05 µM | < 0.5 µM | < 0.05 µM | CCC(C)(CN)c1cccc(-c2ccnc3[nH]ncc23)c1 (stereo not drawn) [Compound 41] |
| < 2.8 µM | < 2.8 µM | < 0.5 µM | CCCc1cc(-c2ccnc3[nH]ncc23)cc(C(C)(C)CN)c1 [Compound 42] |
| < 2.8 µM | < 2.8 µM | < 0.5 µM | CCc1cc(-c2ccnc3[nH]ncc23)cc(C(C)(C)CN)c1 [Compound 44] |
| < 0.5 µM | < 0.5 µM | < 0.05 µM | CC(C)CC(C)(CN)c1cccc(-c2ccnc3[nH]ncc23)c1 (stereo not drawn) [Compound 45] |
| < 0.5 µM | < 0.5 µM | < 0.05 µM | CC(CN)(c1cccc(-c2ccnc3[nH]ncc23)c1)C1CCCC1 (stereo not drawn) [Compound 46] |
| < 0.5 µM | < 0.5 µM | < 0.05 µM | CCC(CC)(CN)c1cccc(-c2ccnc3[nH]ncc23)c1 [Compound 47] |
| < 0.5 µM | < 0.5 µM | < 0.05 µM | CC(C)C(C)(CN)c1cccc(-c2ccnc3[nH]ncc23)c1 (stereo not drawn) [Compound 48] |
| < 0.5 µM | < 2.8 µM | < 0.05 µM | NCC1(c2cccc(-c3ccnc4[nH]ncc34)c2)CCCC1 [Compound 50] |
| < 0.05 µM | < 0.5 µM | < 0.05 µM | CCCC(C)(CN)c1cccc(-c2ccnc3[nH]ncc23)c1 (stereo not drawn) [Compound 51] |
| < 2.8 µM | < 2.8 µM | < 0.5 µM | C=CCc1cc(-c2ccnc3[nH]ncc23)cc(C(C)(C)CN)c1 [Compound 52] |
| > 2.8 µM | > 2.8 µM | < 0.5 µM | C/C=C/c1cc(-c2ccnc3[nH]ncc23)cc(C(C)(C)C#N)c1 [Compound 54] |
| < 2.8 µM | < 2.8 µM | < 0.5 µM | C=Cc1cc(-c2ccnc3[nH]ncc23)cc(C(C)(C)C#N)c1 [Compound 55] |
| > 2.8 µM | < 2.8 µM | < 0.05 µM | CCCc1cc(-c2ccnc3[nH]ncc23)cc(C(C)(C)C#N)c1 [Compound 57] |
| > 2.8 µM | > 2.8 µM | < 0.5 µM | CC(C)(C#N)c1cc(-c2ccc[nH]2)cc(-c2ccnc3[nH]ncc23)c1 [Compound 59] |
| > 2.8 µM | < 2.8 µM | < 0.05 µM | CCc1cc(-c2ccnc3[nH]ncc23)cc(C(C)(C)C#N)c1 [Compound 62] |
| < 2.8 µM | < 2.8 µM | < 0.5 µM | CCC(C)(C#N)c1cccc(-c2ccnc3[nH]ncc23)c1 (stereo not drawn) [Compound 64, 2-(3-(1H-pyrazolo[3,4-b]pyridin-4-yl)phenyl)-2-methylbutanenitrile] |
| < 2.8 µM | < 2.8 µM | < 0.5 µM | CCC(C#N)c1cccc(-c2ccnc3[nH]ncc23)c1 (stereo not drawn) [Compound 66] |
| > 2.8 µM | < 2.8 µM | < 0.5 µM | C=CCc1cc(-c2ccnc3[nH]ncc23)cc(C(C)(C)C#N)c1 [Compound 67] |
| > 2.8 µM | < 2.8 µM | < 2.8 µM | CCCC(C)(C#N)c1cccc(-c2ccnc3[nH]ncc23)c1 (stereo not drawn) [Compound 69] |
| < 2.8 µM | < 2.8 µM | < 0.5 µM | CC(C)C(C)(C#N)c1cccc(-c2ccnc3[nH]ncc23)c1 (stereo not drawn) [Compound 70] |
| < 2.8 µM | < 2.8 µM | < 2.8 µM | CC(C)CC(C)(C#N)c1cccc(-c2ccnc3[nH]ncc23)c1 (stereo not drawn) [Compound 71] |
| > 2.8 µM | > 2.8 µM | < 2.8 µM | CC(C#N)(c1cccc(-c2ccnc3[nH]ncc23)c1)C1CCCC1 (stereo not drawn) [Compound 72] |
| < 2.8 µM | < 2.8 µM | < 0.5 µM | N#CC1(c2cccc(-c3ccnc4[nH]ncc34)c2)CCC1 [Compound 73] |

| Ki (PKC delta kinase) | Ki (PKC alpha kinase) | Ki (PKC theta kinase) | SMILES |
| --- | --- | --- | --- |
| < 2.8 µM | < 2.8 µM | < 0.5 µM | N#CC1(c2cccc(-c3ccnc4[nH]ncc34)c2)CCCC1 [Compound 74] |
| > 2.8 µM | > 2.8 µM | < 2.8 µM | CNCc1cc(-c2ccnc3[nH]ncc23)cc(C(C)(C)C#N)c1 [Compound 75] |
| > 2.8 µM | > 2.8 µM | < 2.8 µM | CC(C)(C#N)c1cc(CN)cc(-c2ccnc3[nH]ncc23)c1 [Compound 76] |
| > 2.8 µM | > 2.8 µM | < 2.8 µM | CCC(O)c1cccc(-c2ccnc3[nH]ncc23)c1 (stereo not drawn) [Compound 77] |
| < 2.8 µM | < 2.8 µM | < 0.05 µM | CC(C)(C#N)c1cc(CCCO)cc(-c2ccnc3[nH]ncc23)c1 [Compound 78] |
| > 2.8 µM | > 2.8 µM | < 0.5 µM | CC(O)Cc1cc(-c2ccnc3[nH]ncc23)cc(C(C)(C)C#N)c1 (stereo not drawn) [Compound 79] |
| > 2.8 µM | < 2.8 µM | < 0.5 µM | CC(C#N)(CC1CC1)c1cccc(-c2ccnc3[nH]ncc23)c1 (stereo not drawn) [Compound 80] |
| > 2.8 µM | > 2.8 µM | < 2.8 µM | C=Cc1ccc(-c2ccnc3n[nH]cc23)cc1C(C)(C)C#N [Compound 84] |
| > 2.8 µM | < 2.8 µM | < 0.05 µM | Cc1cc(-c2ccnc3[nH]ncc23)cc(C2(C#N)CCC2)c1 [Compound 85] |
| > 2.8 µM | < 2.8 µM | < 0.5 µM | CCC(C#N)c1cc(C)cc(-c2ccnc3[nH]ncc23)c1 (stereo not drawn) [Compound 86] |
| < 2.8 µM | < 2.8 µM | < 0.5 µM | CCC(C)(C#N)c1cc(Cl)cc(-c2ccnc3[nH]ncc23)c1 (stereo not drawn) [Compound 87] |
| < 2.8 µM | < 2.8 µM | < 0.05 µM | CC(F)c1cc(-c2ccnc3[nH]ncc23)cc(C(C)(C)C#N)c1 (stereo not drawn) [Compound 88] |
| < 2.8 µM | < 2.8 µM | < 0.5 µM | CCC(C)(C#N)c1cc(C)cc(-c2ccnc3[nH]ncc23)c1 (stereo not drawn) [Compound 89] |
| < 2.8 µM | < 2.8 µM | < 0.5 µM | C=CCC(C)(C#N)c1cccc(-c2ccnc3[nH]ncc23)c1 (stereo not drawn) [Compound 90] |
| < 2.8 µM | < 0.5 µM | < 0.5 µM | C#CCC(C)(C#N)c1cccc(-c2ccnc3[nH]ncc23)c1 (stereo not drawn) [Compound 91] |
| > 2.8 µM | < 2.8 µM | < 0.5 µM | N#CC1(c2cc(-c3ccnc4[nH]ncc34)cc(C(F)(F)F)c2)CCC1 [Compound 92] |
| < 2.8 µM | < 2.8 µM | < 0.5 µM | CCC(C)(C#N)c1cc(-c2ccnc3[nH]ncc23)cc(C(F)(F)F)c1 (stereo not drawn) [Compound 93] |
| > 2.8 µM | > 2.8 µM | < 0.5 µM | C/C=C\c1cc(-c2ccnc3[nH]ncc23)cc(C(C)(C#N)CC)c1 (stereo not drawn) [Compound 94] |
| > 2.8 µM | < 2.8 µM | < 0.5 µM | COCC(C)(C#N)c1cccc(-c2ccnc3[nH]ncc23)c1 (stereo not drawn) [Compound 95] |
| > 2.8 µM | > 2.8 µM | < 2.8 µM | COCCC(C)(C#N)c1cccc(-c2ccnc3[nH]ncc23)c1 (stereo not drawn) [Compound 96] |
| > 2.8 µM | > 2.8 µM | < 0.5 µM | CCCc1cc(-c2ccnc3[nH]ncc23)cc(C2(C#N)CCCC2)c1 [Compound 97] |
| < 0.5 µM | < 2.8 µM | < 0.05 µM | N#CC1(c2cccc(-c3ccnc4[nH]ncc34)c2)CC1 [Compound 98] |
| < 2.8 µM | < 2.8 µM | < 0.5 µM | CC(C#N)(CC(F)F)c1cccc(-c2ccnc3[nH]ncc23)c1 (stereo not drawn) [Compound 99] |

| SMILES | Ki (PKC delta kinase) | Ki (PKC alpha kinase) | Ki (PKC theta kinase) |
| --- | --- | --- | --- |
| NCC1(c2cccc(-c3ccnc4[nH]ncc34)c2)CCC1 [Compound 49] | < 0.5 µM | < 2.8 µM | < 0.05 µM |
